Laboratory results: patent US5310728A, “Method for treating corneal endothelial wounds” (Chiron Ophthalmics, Inc., priority 1992, dated 1994)
Entries after “also recorded” stand apart in the source; their conditions may differ.

Experiments:
[1] = tested on: bovine corneal endothelial cells (BCEC); assay: Stimulation of BCEC DNA synthesis by recombinant peptide growth factors (tritiated thymidine); type: cell-based; conditions: for Relative potency as mitogen for BCEC (in words): absence of other added serum components, ten peptide growth factors compared, EGF first, TGF-α second; for Stimulation of DNA synthesis of BCEC (in words): serum-free CDM, FIG. 5
Experimental: Pure cultures of BCEC were established from freshly obtained cow eyes by trypsin treatment of the endothelial surface. Early passage cultures were trypsinized and seeded into 24 well plates as described above. After the cells had been synchronized by serum deprivation, BCEC were cultured in CDM containing tritiated thymidine and solutions of peptide growth factors produced by recombinant DNA technology. Radioactivity incorporated into DNA was measured as described previously.

[2] = tested on: fibroblasts; conditions: in vitro; Haigler & Carpenter 1980; cited from earlier work
[3] = tested on: endothelial cell division; assay: Intraocular injection of TGF-α solution in a patient with endothelium failure; type: in vivo; conditions: 100 μg/ml in buffered saline, 0.1 ml per injection into the anterior chamber, single or series
Experimental: A patient is diagnosed as requiring a corneal implant due to endothelium failure as a result of such conditions as Fuch's dystrophy or a marginal endothelial count either prior to or after cataract surgery. As an alternative to transplant surgery, the patient undergoes a single or series of intraocular injections of a solution of TGF-α in buffered saline. The concentration of the TFG-α is 100 μg/ml and 0.1 ml of solution are injected into the anterior chamber per injection.

| Substance | Relative potency as mitogen for BCEC (in words) [1] | Minimum exposure time to induce fibroblasts to divide [2] | Stimulation of DNA synthesis of BCEC (in words) [1] | Effect of injections on endothelial cell division [3] |
| --- | --- | --- | --- | --- |
| epidermal growth factor [EGF] | second only to EGF in potency | ≥ 6 h |  |  |
| multiplication stimulating activity |  |  | failed to stimulate DNA synthesis |  |
| nerve growth factor |  |  | failed to stimulate DNA synthesis |  |
| platelet-derived growth factor |  |  | failed to stimulate DNA synthesis |  |
| transforming growth factor alpha [TGF-α] | very potent mitogen for BCEC; also recorded: potent mitogen |  |  | enhance endothelial cell division |
